For 76 compounds, IC50 results are on record in PubChem BioAssay AID504672 (Sanford-Burnham Center for Chemical Genomics, 2011).

Active and inactive are the calls of the source. Rule as the data show it: active = IC50 below about 71 µM; inactive = the rest.

The experiment relates to S. cerevisiae tim10 strain, luminescence counterscreen. Description: signal inhibition in TIM10 yeast counter-screen, dose response, counter-screen for tim23-1 inhibitor project, luminescence, S. cerevisiae, uHTS hits (AID 504672).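 Also: yeast grew roughly 22 hours at 25 °C before the luminescence read.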
As to `CCOc1ccc(N=C(C)C2=C(O)c3ccccc3C2=O)cc1`, the IC50 was 26.4 µM. The figure for `COc1cc2c(cc1OC)/C(=C/c1ccc(Cl)cc1)C(=O)OC2` is 50.9 µM; for `Cc1nc2scc(C)n2c(=O)c1S(=O)(=O)Nc1ccc(N2CCOCC2)cc1` it is > 100 µM (inactive). Take `O=c1oc(-c2ccc(Br)o2)nc2ccccc12`: the half-maximal inhibitory concentration (IC50) is 8.59 µM. Then `N=C1/C(=C\c2coc3ccccc3c2=O)C(=O)N=C2SC=CN12`, with 7.35 µM. The figure for `COc1ccc(C2=NNC(c3cccs3)=Nc3ccc(OC)cc32)cc1` is 9.29 µM. Regarding `O=C(/C(=C/O)N=Nc1ccccc1)c1ccco1`, the IC50 is 11 µM.

In the case of `COc1cccc(Nc2nc3ccc(OC)cc3s2)c1`, the IC50 is 11.2 µM. The figure for `N#C/C(C(N)=O)=c1/ccc2c(c1)N1C3=C(CCCC3)CC3CCCCC31N=2` (stereo unspecified) is 8.55 µM; for `O=C(Nc1ccc(F)c(Cl)c1)c1ccccc1` it is 5.55 µM; for `Oc1ccc2ccccc2c1/C=N/c1nccs1` it is 8.43 µM.

As for `Cc1nc2scc(C)n2c(=O)c1S(=O)(=O)Nc1ccc(OC(F)(F)F)cc1`, the IC50 was 49.3 µM.

In the case of `CCCCc1cc(O)c(CCCC)c(O)c1`, the IC50 is 1.21 µM. The figure for `O=C(Nc1ccc2nc(-c3ccc(Br)o3)[nH]c2c1)c1ccco1` is 6.75 µM; for `O=C(N/N=C/C=C\c1ccco1)c1cccs1` it is 70 µM. On to `CCOC(=O)c1c(C)oc2c1c(C(c1cccnc1)N1CCCCC1)c(O)c1ccccc12` (stereo unspecified), for which the IC50 is 36.1 µM. `CCOC(=O)c1c(C)oc2c(F)c(F)c(F)c(F)c2c1=O`: the IC50 was 26.8 µM. Then `CC1=C(C)/C(=N/OC(=O)c2cccc([N+](=O)[O-])c2)C=CC1=O`, with 5.21 µM; and `CCOC(=O)c1c(-c2ccccc2)oc2ccc(O)cc12`, with 10.2 µM. For the compound `CCOC(=O)NNc1ccc2nonc2c1[N+](=O)[O-]`, the half-inhibitory concentration (IC50) is 10.3 µM. The figure for `c1cnc2c(c1)ccc1cccnc12` is 12.3 µM; for `Cn1cccc1-c1nc2ccc(NC(=O)c3cccs3)cc2[nH]1` it is 28.2 µM. With `O=C(Nc1nsc(-c2ccccc2)n1)c1cccs1`, the 50% inhibitory concentration (IC50) is 6.65 µM.

In the case of `CCn1c(N2CCN(S(=O)(=O)c3ccc(OC)cc3)CC2)nc2ccccc21`, the IC50 is 58 µM. On to `Cc1cc(C(=O)CCl)c(C)n1CCc1ccc(Cl)cc1`, for which the IC50 was 11 µM. As for `Cc1ccc(Nc2cc(C)c3ccc(O)cc3n2)cc1C`, the concentration for half-maximal inhibition (IC50) is 27.2 µM.

Regarding `CCN(CC)c1ccc(C(=O)Nc2cccc(F)c2)cc1`, the IC50 was 5.64 µM. As to `O=C(Nc1nc2ccccc2s1)C1CCCN1S(=O)(=O)c1ccc(Cl)cc1` (stereo unspecified), the IC50 was 49.3 µM. Regarding `CCCc1nc2c(c(=O)c3ccccc3n2C)c(=O)n1C1CCCCCC1`, the half-maximal inhibitory concentration (IC50) is 23.2 µM. The figure for `O=C(CC(=O)c1cc(Cl)ccc1O)c1ccccc1` is 11.1 µM; for `Cc1ccn(-c2ccc(NC(=O)c3cccs3)cc2)n1` it is 5.12 µM; for `Cc1nn(CC(=O)Nc2nc3ccccc3s2)c(C)c1[N+](=O)[O-]` it is 18.4 µM.

With `O=C(c1cccnc1)C1Cc2ccccc2C1=O` (stereo unspecified), the IC50 is 27.8 µM.

On to `CSc1nnc(C(C)(C)C)c(=O)n1/N=C/c1ccccc1`, for which the IC50 was 56.6 µM. Then `O=C1c2ccccc2-c2n[nH]c3cccc1c23`, with 20.2 µM; and `CC1(C)OC(=O)C(=Cc2ccc[nH]2)C(=O)O1`, with 7.41 µM. Then `O=c1cc(C(Cl)(Cl)Cl)oc2c1ccc1ccccc12`, with 63.8 µM.

With `Cc1ccc2nc(N3C(=O)CNC3=S)sc2c1`, the IC50 was 21.1 µM. The figure for `CC(C)(C)c1csc(NC(=O)c2ccc(Br)o2)n1` is 16.7 µM.

As for `Cn1c(/C(C#N)=C/c2ccncc2)nc2ccccc21`, the half-maximal inhibitory concentration (IC50) is 34.3 µM. Then `CCN(CC)S(=O)(=O)c1ccc(C(=O)OCn2nnc3ccccc3c2=O)cc1`, with > 100 µM (inactive).

With `O=C(Nc1ncc([N+](=O)[O-])s1)c1ccc2c(c1)OCO2`, the IC50 is 15.8 µM. The figure for `Cc1nc2ccccc2n1/N=C/c1ccc([N+](=O)[O-])s1` is 2.14 µM; for `Cc1ccc2nc(NC(=O)COC(=O)c3cccnc3)sc2c1` it is 6.25 µM; for `Cc1ccn2cc(C(=O)Nc3ccc4c(c3)OCCO4)nc2c1` it is > 100 µM (inactive).

For `O=c1c2ccccc2[nH]c(=S)n1CCN1CCC(=C(c2ccc(F)cc2)c2ccc(F)cc2)CC1`, the half-maximal inhibitory concentration (IC50) was 12.7 µM.

In the case of `OCCOCCNc1ncnc2c1c(-c1ccccc1)cn2-c1ccccc1`, the IC50 was 11.7 µM. The figure for `Cc1ccc(-c2nnc(N3CCC(C)CC3)c3ccccc23)cc1` is 11.9 µM; for `O=C1c2ccccc2C(=O)N1c1nc(-c2cccs2)cs1` it is 6.52 µM. Turning to `Oc1ccccc1C1NN=C(c2ccccc2)S1` (stereo unspecified), the IC50 is > 100 µM (inactive). In the case of `COc1ccc2c(c1)sc1nc(-c3ccccc3)cn12`, the IC50 is 20.5 µM. Then `C=CCn1c(SCc2cc(=O)n3ccsc3n2)nc2cc(Cl)ccc2c1=O`, with 9.66 µM; and `Cc1nc2nc(-c3cccs3)[nH]c2cc1Br`, with 14.9 µM. Then `O=CN(/C=C1\Sc2ccccc2C1=O)Cc1ccccc1`, with 15.5 µM; and `C[C@@]12C(=O)Nc3ccc(Br)cc3C(=O)N1[C@H]1c3ccccc3OC[C@@H]1[C@@H]2c1ccccc1`, with 3.81 µM. On to `O=C(Nc1nc(-c2cccs2)c(-c2ccccc2)s1)c1ccco1`, for which the half-inhibitory concentration (IC50) was 28.6 µM. The figure for `CCCN(C(=O)c1ccc([N+](=O)[O-])c(C)c1)c1c(N)n(Cc2ccccc2)c(=O)[nH]c1=O` is > 100 µM (inactive). Then `CCOc1nc2ccccc2cc1C=O`, with 1.69 µM. The figure for `O=C(Nc1cccc(NC(=O)c2cccs2)c1)c1ccc(Br)o1` is 15 µM. As to `CC1CCN(c2ccc(-c3cccs3)nn2)CC1`, the IC50 was 8.39 µM. Then `O=C(Nc1ccc(Nc2ccccc2)cc1)c1ccc(Cl)c([N+](=O)[O-])c1`, with 10.8 µM; and `CNC(=S)N/N=C/c1cc(Br)cc(Br)c1O`, with 8.2 µM; and `Fc1ccccc1-c1cc2cc3c(cc2cn1)OCO3`, with 25 µM.

`CC1(C)CC(n2c(NCCO)nc3c(c2=O)C2(CCCC2)Cc2ccccc2-3)CCO1` (stereo unspecified): the 50% inhibitory concentration (IC50) was 12.4 µM. In the case of `Cc1cnc(NC(=O)c2sc(Nc3ccccc3)nc2N)o1`, the IC50 is 28 µM. In the case of `CCCCn1c(N)c(N(CCC(C)C)C(=O)c2ccc3c(c2)OCO3)c(=O)[nH]c1=O`, the IC50 was > 100 µM (inactive).

Regarding `C/C(=N\Nc1ccc([N+](=O)[O-])cc1)c1ccc(O)cc1`, the IC50 was 2.32 µM. Then `Cc1ccc(Nc2nc(-c3cccnc3)nc3ccccc23)cc1`, with 65.8 µM; and `COc1cc(C(=O)N/N=C/c2coc3ccc(Cl)cc3c2=O)ccc1O`, with 6.59 µM. The figure for `O=C(N/N=C/c1cc(Br)cc(Br)c1O)c1cccc(N2CCCC2=O)c1` is 4.11 µM; for `CC(C)n1cc(NC(=O)c2cc(-c3ccccc3)on2)cn1` it is 14.3 µM. As to `O=C(NC(=O)c1ccccc1F)OCc1ccc(Cl)cc1Cl`, the IC50 is 15 µM. Then `O=C(Nc1ccc(-c2ccc(N3CCCCC3)nn2)cc1)c1ccco1`, with 5.82 µM; and `COc1ccc(/C=C/C(=O)Nc2ccc3c(c2)CCC3)cc1OC`, with 64.1 µM; and `COc1ccc(S(=O)(=O)CC(=O)c2cc3cccc(C)c3oc2=O)cc1`, with 15.4 µM. The figure for `CC(C)c1nc(NCCO)c(C#N)c2c1CCCC2` is 18.5 µM.
